In test [1] the target is hGLP-1R (Homo sapiens, UniProt P43220). Description: Functional cAMP formation (HTRF) in HEK-293 clonal cells expressing hGLP-1R, 0.1% bovine casein, without or with 1.0% human serum albumin. Format: cell-based. Conditions: for EC50: cAMP, 0.1% bovine casein (no human serum albumin), geometric mean, read-out: hGLP-1R EC50, nM (SEM, n). Details: expressed in transfected cells. As for the experimental part:
After a 30-min incubation at 37° C., the resulting increase in intracellular cAMP is quantitatively determined using a CisBio cAMP Dynamic 2 HTRF Assay Kit (62AM4PEJ). Briefly, cAMP levels within the cell are detected by adding the cAMP-d2 conjugate in cell lysis buffer (10 µL) followed by the antibody anti-cAMP-Eu^3+-Cryptate, also in cell lysis buffer (10 µL). The resulting competitive assay is incubated for at least 60 min at room temperature, and then is detected using a PerkinElmer Envision® instrument with excitation at 320 nm and emission at 665 nm and 620 nm. Envision units (emission at 665 nm/620 nm* 10,000) are inversely proportional to the amount of cAMP present and are converted to nM cAMP per well us-ing a cAMP standard curve. […] A relative EC50 value and percent top (Emax) are derived by non-linear regression analysis using the percent maximal response vs. the concentration of peptide added, fitted to a four-parameter logistic equation.

The target in test [2] is T1, hGCGR (Homo sapiens, UniProt P47871).
T1 construct: expressed in transfected cells
T1 sequence (P47871 26-477): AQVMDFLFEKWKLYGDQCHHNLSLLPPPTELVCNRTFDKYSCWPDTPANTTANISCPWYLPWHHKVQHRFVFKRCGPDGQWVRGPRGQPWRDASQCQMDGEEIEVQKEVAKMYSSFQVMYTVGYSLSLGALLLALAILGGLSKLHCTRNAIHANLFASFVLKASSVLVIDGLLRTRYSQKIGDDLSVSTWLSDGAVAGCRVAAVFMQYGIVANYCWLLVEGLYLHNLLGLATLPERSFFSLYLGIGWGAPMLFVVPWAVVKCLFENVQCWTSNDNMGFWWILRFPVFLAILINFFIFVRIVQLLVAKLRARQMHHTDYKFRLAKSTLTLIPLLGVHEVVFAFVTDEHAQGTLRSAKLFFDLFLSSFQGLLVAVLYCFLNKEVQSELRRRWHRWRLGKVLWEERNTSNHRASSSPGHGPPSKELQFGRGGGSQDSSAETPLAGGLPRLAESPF
Description: Functional cAMP formation (HTRF) in HEK-293 clonal cells expressing hGCGR, 0.1% bovine casein, without or with 1.0% human serum albumin. Format: cell-based. The method in brief:
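Readings of the HTRF 665/620 nm ratio, which falls as cAMP rises, were converted to nM cAMP using a standard curve after 30 min peptide exposure at 37° C.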
(In general: Changes in cAMP serve as a functional read-out for many G protein-coupled receptors.)

The mark [3] stands for this setting: HEK293, cAMP, 37° C., 0.1% bovine casein, percent of maximal response to GLP-1(7-36)NH2, arithmetic mean, read-out: hGLP-1R Emax, % ± SEM.
The mark [4] stands for this setting: cAMP, 37° C., 0.1% bovine casein (no human serum albumin), geometric mean, read-out: hGCGR EC50, nM (SEM, n).
Where [5] appears, read: HEK293, percent of maximal response to GLP-1(7-36)NH2, 37° C., 0.1% bovine casein, arithmetic mean, read-out: hGLP-1R Emax, % ± SEM.
[6] abbreviates: 0.1% bovine casein and 1.0% human serum albumin, 37° C., geometric mean, read-out: hGCGR EC50, nM (SEM, n).
Where [7] appears, read: cAMP, incubated at 37° C., 0.1% bovine casein (no human serum albumin), geometric mean, read-out: hGCGR EC50, nM (SEM, n).

Where two headings read alike, the source gives them in different places. *1 amine or outer side, *2 acyl side, *3 side chain or, on linkers, in order; H or OH if unused. Where a SMILES comes first, the peptide text is derived from it. Side-chain parts run from the residue outwards. [ ]: non-standard residue; d: D form. The star is where a group is joined. αMePhe(2-F) = C[C@](N)(Cc1ccccc1F)C(=O)O; γGlu = O=C(O)[C@H](CCC(=O)[*:2])N[*:1]; αMeY = C[C@](N)(Cc1ccc(O)cc1)C(=O)O; αMeF = C[C@](N)(Cc1ccccc1)C(=O)O; 4Pal = N[C@@H](Cc1ccncc1)C(=O)O; αMeL = CC(C)C[C@](C)(N)C(=O)O; Lauroyl = CCCCCCCCCCCC(=O)*; Orn = NCCC[C@H](N)C(=O)O; AEEA = NCCOCCOCC(=O)O; Aib = CC(C)(N)C(=O)O Some results are limits rather than exact numbers.

Sequence of hGLP-1R (P43220 24-463): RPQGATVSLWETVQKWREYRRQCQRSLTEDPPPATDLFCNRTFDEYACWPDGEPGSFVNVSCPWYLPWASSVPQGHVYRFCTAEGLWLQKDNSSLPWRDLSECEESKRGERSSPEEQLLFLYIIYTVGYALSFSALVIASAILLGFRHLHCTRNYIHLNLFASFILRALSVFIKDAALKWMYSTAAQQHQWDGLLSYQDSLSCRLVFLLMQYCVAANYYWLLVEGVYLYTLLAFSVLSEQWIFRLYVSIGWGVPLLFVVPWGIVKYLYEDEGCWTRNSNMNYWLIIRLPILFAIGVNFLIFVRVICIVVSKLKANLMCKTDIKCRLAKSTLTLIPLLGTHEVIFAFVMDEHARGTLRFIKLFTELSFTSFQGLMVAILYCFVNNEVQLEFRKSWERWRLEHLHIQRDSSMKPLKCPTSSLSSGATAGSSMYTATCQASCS

Broadly, the Emax is the maximal effect, on the per cent scale that the assay sets. The EC50 is the concentration that produces a half-maximal response. With `CCCCCCCCCCCC(=O)N[C@@H](CCC(=O)NCCOCCOCC(=O)NCCOCCOCC(=O)NCCOCCOCC(=O)NCCCC[C@H](NC(=O)[C@H](CO)NC(=O)[C@@H]1CCCN1C(=O)[C@@H]1CCCN1C(=O)[C@@H]1CCCN1C(=O)[C@H](C)NC(=O)CNC(=O)[C@H](CO)NC(=O)[C@H](CO)NC(=O)[C@@H]1CCCN1C(=O)CNC(=O)CNC(=O)[C@H](CCC(=O)O)NC(=O)[C@@H](NC(=O)[C@H](CC(C)C)NC(=O)[C@](C)(Cc1ccc(O)cc1)NC(=O)[C@@H](CCC(=O)O)NC(=O)[C@@H](NC(=O)[C@](C)(Cc1ccccc1)NC(=O)[C@H](CCC(=O)O)NC(=O)C(C)(C)NC(=O)[C@H](CCC(N)=O)NC(=O)[C@H](C)NC(=O)[C@H](CCCCNC(=O)COCCOCCNC(=O)COCCOCCNC(=O)COCCOCCNC(=O)CC[C@H](NC(=O)CCCCCCCCCCC)C(=O)O)NC(=O)[C@H](CCCN)NC(=O)[C@H](CC(=O)O)NC(=O)[C@H](CC(C)C)NC(=O)[C@](C)(CC(C)C)NC(=O)[C@@H](NC(=O)C(C)(C)NC(=O)[C@H](Cc1ccncc1)NC(=O)[C@H](CC(=O)O)NC(=O)[C@H](CO)NC(=O)[C@@H](NC(=O)[C@](C)(Cc1ccccc1F)NC(=O)[C@@H](NC(=O)CNC(=O)[C@H](CCC(=O)O)NC(=O)C(C)(C)NC(=O)[C@@H](N)Cc1ccc(O)cc1)[C@@H](C)O)[C@@H](C)O)[C@@H](C)CC)[C@@H](C)CC)[C@@H](C)CC)C(N)=O)C(=O)O` [Example 439] (H-Y[Aib]EGT[αMePhe(2-F)]TSD[4Pal][Aib]I[αMeL]LD[Orn]K([AEEA-AEEA-AEEA-γGlu-Lauroyl])AQ[Aib]E[αMeF]I[dE][αMeY]LIEGGPSSGAPPPSK([AEEA-AEEA-AEEA-γGlu-Lauroyl])-NH2), the Emax in test [1] (HEK293, cAMP, 37° C., 0.1% bovine casein and 1.0% human serum albumin, percent of maximal response to GLP-1(7-36)NH2, read-out: hGLP-1R Emax, % ± SEM) turned out to be 97%; in test [1] (setting [3]), 95.7%. The EC50 in test [1] (37° C.) was 0.11 nM; in test [2] (setting [4]), > 9950 nM; in test [2] (cAMP, 37° C., 0.1% bovine casein and 1.0% human serum albumin, geometric mean (SEM, n), read-out: hGCGR EC50, nM (SEM, n)), > 9950 nM.

For the compound `CC[C@H](C)[C@H](NC(=O)[C@H](CC(C)C)NC(=O)[C@](C)(Cc1ccc(O)cc1)NC(=O)[C@@H](CCC(=O)O)NC(=O)[C@@H](NC(=O)[C@H](Cc1ccccc1)NC(=O)[C@H](CCC(=O)O)NC(=O)C(C)(C)NC(=O)[C@H](CCC(N)=O)NC(=O)[C@H](C)NC(=O)[C@H](CCCCNC(=O)COCCOCCNC(=O)COCCOCCNC(=O)CC[C@H](NC(=O)CCCCCCCCCCCCC(=O)O)C(=O)O)NC(=O)[C@H](CCCN)NC(=O)[C@H](CC(=O)O)NC(=O)[C@H](CC(C)C)NC(=O)[C@](C)(CC(C)C)NC(=O)[C@@H](NC(=O)[C@H](CO)NC(=O)C1(NC(=O)[C@H](CC(=O)O)NC(=O)[C@H](CO)NC(=O)[C@@H](NC(=O)[C@](C)(Cc2ccccc2F)NC(=O)[C@@H](NC(=O)CNC(=O)[C@H](CCC(=O)O)NC(=O)C(C)(C)NC(=O)[C@@H](N)Cc2ccc(O)cc2)[C@@H](C)O)[C@@H](C)O)CCCC1)[C@@H](C)CC)[C@@H](C)CC)C(=O)N[C@@H](CCC(=O)O)C(=O)NCC(=O)NCC(=O)N[C@@H](CCCCNC(=O)COCCOCCNC(=O)COCCOCCNC(=O)CC[C@H](NC(=O)CCCCCCCCCCCCC(=O)O)C(=O)O)C(=O)N[C@@H](CO)C(=O)N[C@@H](CO)C(=O)NCC(=O)N[C@@H](C)C(=O)N1CCC[C@H]1C(=O)N1CCC[C@H]1C(=O)N1CCC[C@H]1C(=O)N[C@@H](CO)C(N)=O` [Example 53], the Emax in test [1] (HEK293, 0.1% bovine casein and 1.0% human serum albumin, 37° C., percent of maximal response to GLP-1(7-36)NH2, read-out: hGLP-1R Emax, % ± SEM) is 89.3 ± 6.12%; in test [1] (setting [5]) it was 89.9 ± 9.41%. The results for the EC50 in test [1] (incubated at 37° C.), in test [2] (setting [6]) and in test [2] (setting [7]) were 0.18 nM, > 9950 nM and > 9950 nM, respectively.

Take `CC[C@H](C)[C@H](NC(=O)[C@H](CC(C)C)NC(=O)[C@](C)(Cc1ccc(O)cc1)NC(=O)[C@@H](CCC(=O)O)NC(=O)[C@@H](NC(=O)[C@H](Cc1ccccc1)NC(=O)[C@H](CCC(=O)O)NC(=O)[C@H](CCCN)NC(=O)[C@H](CCC(N)=O)NC(=O)[C@H](C)NC(=O)[C@H](CCCCNC(=O)COCCOCCNC(=O)COCCOCCNC(=O)CC[C@H](NC(=O)CCCCCCCCCCCCC(=O)O)C(=O)O)NC(=O)[C@H](CCCN)NC(=O)[C@H](CC(=O)O)NC(=O)[C@H](CC(C)C)NC(=O)[C@](C)(CC(C)C)NC(=O)[C@@H](NC(=O)[C@H](CO)NC(=O)[C@H](Cc1ccncc1)NC(=O)[C@H](CC(=O)O)NC(=O)[C@H](CO)NC(=O)[C@@H](NC(=O)[C@](C)(Cc1ccccc1F)NC(=O)[C@@H](NC(=O)CNC(=O)[C@H](CCC(=O)O)NC(=O)C(C)(C)NC(=O)[C@@H](N)Cc1ccc(O)cc1)[C@@H](C)O)[C@@H](C)O)[C@@H](C)CC)[C@@H](C)CC)C(=O)N[C@@H](CCC(=O)O)C(=O)NCC(=O)NCC(=O)N[C@@H](CCCCNC(=O)COCCOCCNC(=O)COCCOCCNC(=O)CC[C@H](NC(=O)CCCCCCCCCCCCC(=O)O)C(=O)O)C(=O)N[C@@H](CO)C(=O)N[C@@H](CO)C(=O)NCC(=O)N[C@@H](C)C(=O)N1CCC[C@H]1C(=O)N1CCC[C@H]1C(=O)N1CCC[C@H]1C(=O)N[C@@H](CO)C(N)=O` [Example 149]: the Emax in test [1] (setting [5]) was 98.3 ± 0.579%. Further, the figures for the EC50 in test [1] (incubated at 37° C.) and in test [2] (setting [7]) were 1.5 nM and > 9950 nM, respectively.

Consider `CC[C@H](C)[C@H](NC(=O)[C@H](CC(C)C)NC(=O)[C@](C)(Cc1ccc(O)cc1)NC(=O)[C@@H](CCC(=O)O)NC(=O)[C@@H](NC(=O)[C@H](Cc1ccccc1)NC(=O)[C@H](CCC(=O)O)NC(=O)C(C)(C)NC(=O)[C@H](CCC(N)=O)NC(=O)[C@H](C)NC(=O)[C@H](CCCCNC(=O)COCCOCCNC(=O)COCCOCCNC(=O)CC[C@H](NC(=O)CCCCCCCCCCCCC(=O)O)C(=O)O)NC(=O)[C@H](CCCN)NC(=O)[C@H](CC(=O)O)NC(=O)[C@H](CC(C)C)NC(=O)[C@](C)(CC(C)C)NC(=O)[C@@H](NC(=O)[C@H](CO)NC(=O)[C@H](Cc1ccc2ccccc2c1)NC(=O)[C@H](CC(=O)O)NC(=O)[C@H](CO)NC(=O)[C@@H](NC(=O)[C@](C)(Cc1ccccc1F)NC(=O)[C@@H](NC(=O)CNC(=O)[C@H](CCC(=O)O)NC(=O)C(C)(C)NC(=O)[C@@H](N)Cc1ccc(O)cc1)[C@@H](C)O)[C@@H](C)O)[C@@H](C)CC)[C@@H](C)CC)C(=O)N[C@@H](CCCCNC(=O)COCCOCCNC(=O)COCCOCCNC(=O)CC[C@H](NC(=O)CCCCCCCCCCCCC(=O)O)C(=O)O)C(=O)NCC(=O)NCC(=O)N1CCC[C@H]1C(=O)N[C@@H](CO)C(=O)N[C@@H](CO)C(=O)NCC(=O)N[C@@H](C)C(=O)N1CCC[C@H]1C(=O)N1CCC[C@H]1C(=O)N1CCC[C@H]1C(=O)N[C@@H](CO)C(N)=O` [Example 250], for which the Emax in test [1] (setting [3]) was 114%. Also, the figures for the EC50 in test [1] (37° C.), in test [2] (setting [6]) and in test [2] (setting [4]) were 0.414 nM, > 9950 nM and > 9950 nM, respectively.

On to `CC[C@H](C)[C@H](NC(=O)[C@H](CC(C)C)NC(=O)[C@](C)(Cc1ccccc1)NC(=O)[C@H](CCCCNC(=O)COCCOCCNC(=O)COCCOCCNC(=O)CC[C@H](NC(=O)CCCCCCCCCCCCC(=O)O)C(=O)O)NC(=O)[C@@H](NC(=O)[C@](C)(Cc1ccccc1)NC(=O)[C@H](CCC(=O)O)NC(=O)C(C)(C)NC(=O)[C@H](CCC(N)=O)NC(=O)[C@H](C)NC(=O)[C@H](CCCCNC(=O)COCCOCCNC(=O)COCCOCCNC(=O)CC[C@H](NC(=O)CCCCCCCCCCCCC(=O)O)C(=O)O)NC(=O)[C@H](CCCN)NC(=O)[C@H](CC(=O)O)NC(=O)[C@H](CC(C)C)NC(=O)[C@](C)(CC(C)C)NC(=O)[C@@H](NC(=O)[C@H](CO)NC(=O)C1(NC(=O)[C@H](CC(=O)O)NC(=O)[C@H](CO)NC(=O)[C@@H](NC(=O)[C@](C)(Cc2ccccc2F)NC(=O)[C@@H](NC(=O)CNC(=O)[C@H](CCC(=O)O)NC(=O)C(C)(C)NC(=O)[C@@H](N)Cc2ccc(O)cc2)[C@@H](C)O)[C@@H](C)O)CCCC1)[C@@H](C)CC)[C@@H](C)CC)C(=O)N[C@@H](CCC(=O)O)C(=O)NCC(=O)NCC(=O)N1CCC[C@H]1C(=O)N[C@@H](CO)C(=O)N[C@@H](CO)C(=O)NCC(=O)N[C@@H](C)C(=O)N1CCC[C@H]1C(=O)N1CCC[C@H]1C(=O)N1CCC[C@H]1C(=O)N[C@@H](CO)C(N)=O` [Example 124], for which the maximal effect (Emax) in test [1] (HEK293, read-out: hGLP-1R Emax, % ± SEM, percent of maximal response to GLP-1(7-36)NH2, 37° C., 0.1% bovine casein, arithmetic mean) was 93.3%. Also, the EC50 in test [2] (hGCGR EC50, nM (SEM, n), cAMP, incubated at 37° C., 0.1% bovine casein (no human serum albumin), geometric mean) is > 9950 nM.

The record behind these values is US20230265151A1, “GIP/GLP1 CO-AGONIST COMPOUNDS” (priority 2020, published 2023).
